From patent publication US20110124650A1, “STABLE CRYSTALLINE SALTS OF ANTIFOLATE COMPOUNDS” (Chelsea Therapeutics, Inc., priority 2009, published 2011)

Experiments:
[1] = Polymorph stress test: water content by Karl Fisher titration after storage; type: physicochemical; conditions: for Water content (Karl Fisher): dipotassium salt
Method: Samples of polymorph Form Ib and polymorph Form II also were analyzed for water content using Karl Fisher titration according to method AM-1-General/water content. A columetric Karl Fisher titrator (DL39, Mettler Toledo) was used with a Stromboli drying oven (Mettler Toledo), a generator electrode, and a standard analytical balance (at least […] accuracy). Instrument conditions were set for an oven temperature of 150° C., a gas flow rate of 100.0 mL/min, and a stirrer speed of 50%. Control parameters were set for a max time of 600 s, a current of 2.0 μA, an end point of 100 mV, and a generation speed set at normal. The samples were tested on the day of synthesis (zero point) and at 1, 2, and 4 weeks storage at ambient conditions (i.e., room temperature and room humidity), at 25° C. (+/−2° C.) and 60% relative humidity (RH) (+/−5% RH), and at 40° C. (+/−2° C.) and 75% RH (+/−5% RH). Test results are provided in Table 10 (Form Ib) and Table 11 (Form II), wherein the values provided are the percent water content.

[2] = Polymorph stress test: purity by HPLC-UV after storage; type: physicochemical; conditions: for Purity by HPLC-UV, average: average over time points
Method: Samples of polymorph Form Ib and polymorph Form II were analyzed for purity by HPLC-UV according to method AM-5-ASP001 performed by gradient liquid chromatography with UV-detection at 237 nm. A Hypersil GOLD column from Thermo Scientific (250×4.6 mm, 5 μm) was used at a temperature of 30° C. A Dionex STH 585 column oven was used with a Dionex P580 gradient pump and a flow rate of 1.0 ml/min (gradient elution). A Dionex Degasys DG-1210 degasser and a Gynkotek Gina 50 autosampler injector were used with an injection volume of 5 μL. A Dionex PDA-100 photodiode array detector was used at a wavelength of 237 nm. Sample runtime was 46 minutes. The samples were tested on the day of synthesis (zero point) and at 1, 2, and 4 weeks storage at ambient conditions (i.e., room temperature and room humidity), at 25° C. (+/−2° C.) and 60% relative humidity (RH) (+/−5% RH), and at 40° C. (+/−2° C.) and 75 RH (+/−5% RH). Test results are provided in Table 8 (Form Ib) and Table 9 (Form II), wherein the values provided are the area %.

[3] = 25° C. (+/−2° C.) and 60% relative humidity (+/−5% RH)
[4] = 1 week storage, 25° C./60% RH, dipotassium salt
[5] = 1 week storage, 40° C./75% RH, dipotassium salt
[6] = 1 week storage, ambient conditions, dipotassium salt
[7] = 2 weeks storage, 25° C./60% RH, dipotassium salt
[8] = 2 weeks storage, 40° C./75% RH, dipotassium salt
[9] = 2 weeks storage, ambient conditions, dipotassium salt
[10] = 4 weeks storage, 25° C./60% RH, dipotassium salt
[11] = 4 weeks storage, 40° C./75% RH, dipotassium salt
[12] = 25° C./60% RH, dipotassium salt
[13] = 40° C./75% RH, dipotassium salt
[14] = ambient conditions, dipotassium salt
[15] = zero point (day of synthesis), dipotassium salt
[16] = 1 week storage, ambient conditions
[17] = 2 weeks storage, ambient conditions
[18] = 4 weeks storage, ambient conditions

Compound	Water uptake on storage (in words) [1, 3]	Purity by HPLC-UV [2, 4]	Purity by HPLC-UV [2, 5]	Purity by HPLC-UV [2, 6]	Purity by HPLC-UV [2, 7]	Purity by HPLC-UV [2, 8]	Purity by HPLC-UV [2, 9]	Purity by HPLC-UV [2, 10]	Purity by HPLC-UV [2, 11]	Purity by HPLC-UV, average [2, 12]	Purity by HPLC-UV, average [2, 13]	Purity by HPLC-UV, average [2, 14]	Purity by HPLC-UV [2, 15]	Water content (Karl Fisher) ([1]; 1 week storage, 25° C./60% RH)	Water content (Karl Fisher) ([1]; 1 week storage, 40° C./75% RH)	Water content (Karl Fisher) [1, 16]	Water content (Karl Fisher) ([1]; 2 weeks storage, 25° C./60% RH)	Water content (Karl Fisher) ([1]; 2 weeks storage, 40° C./75% RH)	Water content (Karl Fisher) [1, 17]	Water content (Karl Fisher) ([1]; 4 weeks storage, 25° C./60% RH)	also measured
C=C(C[C@H](NC(=O)c1ccc(CCc2ccc3nc(N)nc(N)c3c2)cc1)C(=O)[O-])C(=O)[O-].[K+].[K+] [Form I, (S)-2-{4-[2-(2,4-diamino-quinazolin-6-yl)-ethyl]-benzoylamino}-4-methylene-pentanedioic acid, dipotassium salt]	no significant water uptake																				
C=C(C[C@H](NC(=O)c1ccc(CCc2ccc3nc(N)nc(N)c3c2)cc1)C(=O)[O-])C(=O)[O-].[K+].[K+] [Form II, (S)-2-{4-[2-(2,4-diamino-quinazolin-6-yl)-ethyl]-benzoylamino}-4-methylene-pentanedioic acid, dipotassium salt]	no significant water uptake	96.53 area %	96.43 area %	96.42 area %	96.24 area %	96.35 area %	96.49 area %	96.24 area %	95.52 area %	96.44 area %	96.10 area %	96.49 area %	96.46 area %	17.0%	21.2%	18.7%	16.3%	24.4%	21.1%	16.5%	Water content (Karl Fisher) ([1]; 4 weeks storage, 40° C./75% RH): 26.6%; Water content (Karl Fisher) [1, 18]: 21.9%; Storage stability (in words) [1, 3]: stable; Water content (Karl Fisher) ([1]; zero point (day of synthesis)): 15.6%
C=C(C[C@H](NC(=O)c1ccc(CCc2ccc3nc(N)nc(N)c3c2)cc1)C(=O)[O-])C(=O)[O-].[K+].[K+] [Form Ib, (S)-2-{4-[2-(2,4-diamino-quinazolin-6-yl)-ethyl]-benzoylamino}-4-methylene-pentanedioic acid, dipotassium salt]		95.96 area %	95.87 area %	95.87 area %	95.67 area %	95.43 area %	95.78 area %	95.85 area %	95.34 area %	95.83 area %	95.55 area %	95.88 area %	95.94 area %	16.0%	19.6%	16.2%	15.5%	22.7%	16.5%	16.4%	Purity by HPLC-UV [2, 18]: 95.91 area %; Water content (Karl Fisher) ([1]; 4 weeks storage, 40° C./75% RH): 26.8%; Water content (Karl Fisher) [1, 18]: 18.4%; Water content (Karl Fisher) ([1]; zero point (day of synthesis)): 14.8%
